Test results reported in patent publication US20190047966A1, “NOVEL COMPOUND AND PHARMACOLOGICALLY ACCEPTABLE SALT THEREOF” (MEIJI SEIKA PHARMA CO., LTD., priority 2016, published 2019).
Structures can show the parent of a compound that is named as a salt. Where two headings read alike, the source gives them in different places.

Tests used:
[1] = target: T1, human histamine H4 receptor (Homo sapiens, UniProt Q9H3N8); test: Evaluation of H4 Receptor Function ([35S]GTPγS binding); assay type: biochemical
T1 construct: purchased PerkinElmer Inc; host or cells: CHO-K1
Protocol: The antagonistic effect was evaluated by the method described below. Membrane preparation from recombinant CHO-K1 cell expressing the human histamine H4 receptor (PerkinElmer Inc.), 10 μM GDP, 0.1 μM histamine, and the compounds dissolved in DMSO were reacted at 30° C. for 20 minutes in a buffering solution containing 20 mM HEPES, pH 7.4, 100 mM NaCl, 10 mM MgCl2, 1 mM DTT, and 1 mM EDTA on an assay plate. Thereafter, SPA beads (Amersham plc) were added, followed by incubation for 60 minutes, and further 0.3 nM [^35S]GTPγS (PerkinElmer Inc.) was added, followed by incubation for 30 minutes.

[2] = target: T1, human histamine H4 receptor; test: Evaluation of Human H4 Receptor Affinity ([3H]histamine binding); details: inhibition constant Ki, CHO-K1 membrane preparation
Outline: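 Radioligand displacement: compound competes with 8.2 nM [3H]histamine at recombinant human H4 receptor in CHO-K1 membranes (Tris-HCl 50 mM pH 7.4, EDTA 1.25 mM; 25 °C, 90 min), with filter-bound radioactivity counted. IC50 was converted to Ki via Cheng-Prusoff (Kd 5.7 nM); 1.0 μM histamine set nonspecific binding.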

[3] = target: T2, human histamine H1 receptor (Homo sapiens, UniProt P35367); test: Evaluation of Human H1 Receptor Affinity ([3H]pyrilamine binding); parameters: purchased PerkinElmer Inc; host or cells: CHO-K1; details: inhibition constant Ki, CHO-K1 membrane preparation
T2 sequence (P35367 whole entry): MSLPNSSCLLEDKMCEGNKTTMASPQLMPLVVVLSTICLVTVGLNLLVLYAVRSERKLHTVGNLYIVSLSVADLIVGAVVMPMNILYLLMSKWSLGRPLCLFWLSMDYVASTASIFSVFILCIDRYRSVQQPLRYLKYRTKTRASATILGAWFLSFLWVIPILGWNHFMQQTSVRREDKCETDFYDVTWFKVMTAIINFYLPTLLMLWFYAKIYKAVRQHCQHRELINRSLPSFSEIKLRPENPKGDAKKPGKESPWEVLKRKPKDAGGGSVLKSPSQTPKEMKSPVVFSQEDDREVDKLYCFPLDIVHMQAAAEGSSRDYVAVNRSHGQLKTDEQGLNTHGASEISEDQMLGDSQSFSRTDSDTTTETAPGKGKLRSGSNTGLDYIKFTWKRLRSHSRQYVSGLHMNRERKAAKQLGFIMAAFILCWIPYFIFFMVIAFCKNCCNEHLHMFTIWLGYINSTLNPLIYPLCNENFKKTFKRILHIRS
Outline: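 Ki values are Cheng-Prusoff conversions of IC50 (Kd 1.1 nM) from radioligand displacement of 1.2 nM [3H]pyrilamine, with 1.0 μM pyrilamine defining nonspecific binding.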

[4] = target: T2, human histamine H1 receptor; test: Evaluation of Human H1 Receptor Function (GeneBLAzer H1-NFAT-bla HEK 293T cells); assay type: cell-based; details: histamine 30 nM, read-out: Evaluation of H1 Receptor Function (IC50 value, antagonistic effect)
Protocol: Test Example 3: Evaluation of Human H1 Receptor Function
The antagonistic effect was evaluated by the method described below. GeneBLAzer® H1-NFAT-bla HEK 293T-cells (Invitrogen Corporation, recombinant cells expressing the human histamine H1 receptor) were incubated at 37° C. for 30 minutes in the presence of the test compounds dissolved in DMSO in a high glucose Dulbecco's Modified Eagle Medium (GlutaMAX, containing 10% fetal bovine serum, 100 μM nonessential amino acids, 25 mM HEPES, 100 U/mL penicillin, and 100 μg/mL streptomycin), and histamine was added such that the final concentration became 30 nM, followed by further incubation for 4.5 hours. Then, a mixture of LiveBLAzer™ FRET-B/G Loading Kit (Invitrogen Corporation) and Solution D (Invitrogen Corporation) was added, followed by leaving to stand at room temperature for 2 hours under shaded conditions. Thereafter, the fluorescence intensity was measured under two conditions of 400 nm/460 nm and 400 nm/535 nm (excitation light/fluorescence) by using a multilabel counter (EnVision: PerkinElmer Inc.). The 50% inhibitory concentration (IC50 value) was calculated in accordance with (measured value−blank measured value at 400 nm/460 nm)/(measured value−blank measured value at 400 nm/535 nm) of each test sample.

[5] = [35S]GTPγS binding, CHO-K1 membrane, 0.1 μM histamine, read-out: Evaluation of H4 Receptor Function (IC50 value, antagonistic effect)
[6] = read-out: Evaluation of H4 Receptor Affinity

IC50 [1, 5] [nM] | Ki [2, 6] [nM] | Ki [3] [nM] | IC50 [4] [nM] | IC50 [1] [nM] | Ki ([2]; Evaluation of H4 Receptor Affinity) [nM] | SMILES
200 to 2000 | < 100 | < 100 | < 200 |  |  | Nc1nc2c(c(N3CCN(CCOCc4ccc(F)c(C(=O)O)c4)CC3)n1)CCc1cc(OCc3ccc(Cl)cc3)ccc1-2 [17(b), 5-((2-(4-(2-amino-8-((4-chlorobenzyl)oxy)-5,6-dihydrobenzo[h]quinazolin-4-yl)piperazin-1-yl)ethoxy)methyl)-2-fluorobenzoic acid]
 |  | < 100 | < 200 | < 200 | < 100 | CN1CCN(c2nc(N)nc3c2CCc2cc(OCc4ccccc4)ccc2-3)CC1 [Example 2, 8-(benzyloxy)-4-(4-methylpiperazin-1-yl)-5,6-dihydrobenzo[h]quinazolin-2-amine]
200 to 2000 | 100 to 500 | < 100 | < 200 |  |  | Nc1nc2c(c(N3CCN(CCOCc4ccc(C(=O)O)o4)CC3)n1)CCc1cc(OCc3ccc(Cl)cc3)ccc1-2 [127(b), 5-((2-(4-(2-amino-8-((4-chlorobenzyl)oxy)-5,6-dihydrobenzo[h]quinazolin-4-yl)piperazin-1-yl)ethoxy)methyl)furan-2-carboxylic acid]
200 to 2000 | 100 to 500 | < 100 | < 200 |  |  | Nc1nc2c(c(N3CCN(CCOCc4cc(C(=O)O)ccc4F)CC3)n1)CCc1cc(OCc3ccc(Cl)cc3)ccc1-2 [129(b), 3-((2-(4-(2-amino-8-((4-chlorobenzyl)oxy)-5,6-dihydrobenzo[h]quinazolin-4-yl)piperazin-1-yl)ethoxy)methyl)-4-fluorobenzoic acid]
< 200 | < 100 | < 100 | < 200 |  |  | Nc1nc2c(c(N3CCN(CCOC[C@H]4CC[C@H](C(=O)O)CC4)CC3)n1)CCc1cc(OCc3ccc(OC(F)(F)F)cc3)ccc1-2 [Example 29, trans-4-((2-(4-(2-amino-8-((4-(trifluoromethoxy)benzyl)oxy)-5,6-dihydrobenzo[h]quinazolin-4-yl)piperazin-1-yl)ethoxy)methyl)cyclohexane-1-carboxylic acid]
< 200 | < 100 | 100 to 500 | 200 to 2000 |  |  | Nc1nc2c(c(N3CCN(CCOc4ccc(C(=O)O)cc4)CC3)n1)CCc1cc(OCc3ccc(Cl)cc3)ccc1-2 [19(b), 4-(2-(4-(2-amino-8-((4-chlorobenzyl)oxy)-5,6-dihydrobenzo[h]quinazolin-4-yl)piperazin-1-yl)ethoxy)benzoic acid]
< 200 | < 100 | < 100 | < 200 |  |  | [2H]C([2H])(C(=O)O)[C@H]1C[C@@H](OCCN2CCN(c3nc(N)nc4c3CCc3cc(OCc5ccc(OC(F)(F)F)cc5)ccc3-4)CC2)C1 [Example 184, cis-2-(3-(2-(4-(2-amino-8-((4-(trifluoromethoxy)benzyl)oxy)-5,6-dihydrobenzo[h]quinazolin-4-yl)piperazin-1-yl)ethoxy)cyclobutyl)acetic-c-2,2-d2 acid]
200 to 2000 | < 100 | < 100 | < 200 |  |  | Nc1nc2c(c(N3CCN(CCOCc4nn[nH]n4)CC3)n1)CCc1cc(OCc3ccc(Cl)cc3)ccc1-2 [Example 22, 4-(4-(2-((tetrazol-5-yl)methoxy)ethyl)piperazin-1-yl)-8-((4-chlorobenzyl)oxy)-5,6-dihydrobenzo[h]quinazolin-2-amine]
200 to 2000 | < 100 | < 100 | < 200 |  |  | Nc1nc2c(c(N3CCN(CCO[C@H]4C[C@@H](C(=O)O)C4)CC3)n1)CCc1cc(OCc3ccc(Cl)cc3)ccc1-2 [Example 14, cis-3-(2-(4-(2-amino-8-((4-chlorobenzyl)oxy)-5,6-dihydrobenzo[h]quinazolin-4-yl)piperazin-1-yl)ethoxy)cyclobutane-1-carboxylic acid]
< 200 | < 100 | < 100 | < 200 |  |  | CS(=O)(=O)NCCOCCOCCN1CCN(c2nc(N)nc3c2CCc2cc(OCc4ccc(Cl)cc4)ccc2-3)CC1 [Example 111, N-(2-(2-(2-(4-(2-amino-8-((4-chlorobenzyl)oxy)-5,6-dihydrobenzo[h]quinazolin-4-yl)piperazin-1-yl)ethoxy)ethoxy)ethyl)methanesulfonamide dihydrochoride]
< 200 | < 100 | < 100 | < 200 |  |  | NC(=O)N1CC(COCCN2CCN(c3nc(N)nc4c3CCc3cc(OCc5ccc(OC(F)(F)F)cc5)ccc3-4)CC2)C1 [Example 39, 3-((2-(4-(2-amino-8-((4-(trifluoromethoxy)benzyl)oxy)-5,6-dihydrobenzo[h]quinazolin-4-yl)piperazin-1-yl)ethoxy)methyl)azetidine-1-carboxamide]
200 to 2000 | < 100 | < 100 | < 200 |  |  | CN1CCN(c2nc(N)nc3c2CCc2cc(NS(=O)(=O)c4ccc(Cl)cc4)ccc2-3)CC1 [Example 42, N-(2-amino-4-(4-methylpiperazin-1-yl)-5,6-dihydrobenzo[h]quinazolin-8-yl)-4-chlorobenzenesulfonamide]
200 to 2000 | < 100 | < 100 | < 200 |  |  | Nc1nc2c(c(N3CCN(CCOCC4CC5(C4)CC(C(=O)O)C5)CC3)n1)CCc1cc(OCc3ccc(Cl)cc3)ccc1-2 (stereo not drawn) [Example 152, 6-((2-(4-(2-amino-8-((4-chlorobenzyl)oxy)-5,6-dihydrobenzo[h]quinazolin-4-yl)piperazin-1-yl)ethoxy)methyl)spiro[3.3]heptane-2-carboxylic acid hydrochloride]
200 to 2000 | < 100 | < 100 | < 200 |  |  | Nc1nc2c(c(N3CCN(CCOC[C@H]4CC[C@@H](C(=O)O)CC4)CC3)n1)CCc1cc(OCc3ccc(Cl)cc3)ccc1-2 [Example 12, cis-4-((2-(4-(2-amino-8-((4-chlorobenzyl)oxy)-5,6-dihydrobenzo[h]quinazolin-4-yl)piperazin-1-yl)ethoxy)methyl)cyclohexane-1-carboxylic acid]
< 200 | < 100 | < 100 | < 200 |  |  | Nc1nc2c(c(N3CCN(CCOCCOCC(=O)O)CC3)n1)CCc1cc(OCc3ccc(OC(F)(F)F)cc3)ccc1-2 [Example 143, 2-(2-(2-(4-(2-amino-8-((4-(trifluoromethoxy)benzyl)oxy)-5,6-dihydrobenzo[h]quinazolin-4-yl)piperazin-1-yl)ethoxy)ethoxy)acetic acid formate]
< 200 | < 100 | < 100 | < 200 |  |  | Nc1nc2c(c(N3CCN(CCO[C@@H]4CO[C@@H](C(=O)O)C4)CC3)n1)CCc1cc(OCc3ccc(OC(F)(F)F)cc3)ccc1-2 [Example 37, (2R,4S)-4-(2-(4-(2-amino-8-((4-(trifluoromethoxy)benzyl)oxy)-5,6-dihydrobenzo[h]quinazolin-4-yl)piperazin-1-yl)ethoxy)tetrahydrofuran-2-carboxylic acid]
200 to 2000 | 100 to 500 | < 100 | < 200 |  |  | CC(C)(OCCOCCN1CCN(c2nc(N)nc3c2CCc2cc(OCc4ccc(Cl)cc4)ccc2-3)CC1)C(=O)O [Example 122, 2-(2-(2-(4-(2-amino-8-((4-chlorobenzyl)oxy)-5,6-dihydrobenzo[h]quinazolin-4-yl)piperazin-1-yl)ethoxy)ethoxy)-2-methylpropanoic acid]
200 to 2000 | < 100 | < 100 | < 200 |  |  | Nc1nc2c(c(N3CCN(CCOC[C@H]4CC[C@H](C(=O)O)CC4)CC3)n1)CCc1cc(OCc3ccc(Cl)cc3)ccc1-2 [Example 13, trans-4-((2-(4-(2-amino-8-((4-chlorobenzyl)oxy)-5,6-dihydrobenzo[h]quinazolin-4-yl)piperazin-1-yl)ethoxy)methyl)cyclohexane-1-carboxylic acid]
